Experiments:
[1] = Oral bioavailability study in rabbits (serum gallium by graphite furnace atomic absorption); assay type: in vivo, New Zealand white rabbits; conditions: oral gavage; for Mean gallium content of rabbit serum: 4 ml per kg, 10 mg elemental gallium per 4 ml, fasted 18 hours, 3 animals
Method: A test of the oral bioavailability of the 3:1 ethyl maltol:gallium complex in rabbits was conducted. In this test, the complex was given to rabbits and compared to a solution of gallium nitrate. Six female New Zealand white rabbits weighing between 2.68 and 2.91 kg were used, and were not fed for 18 hours before starting the experiment. A suspension of the 3:1 gallium ethyl maltol complex in double distilled water was prepared with a concentration of 10 mg elemental gallium per 4 ml of suspension. […] A small amount of solid sodium carbonate was added to the latter solution to bring the pH up to about 6. Each of the two solutions was given to three rabbits by oral gavage (through a tube inserted through the mouth to the stomach) in the amount of 4 ml per kg of body weight. The stomach tubes were flushed by three ml of water following administration of the solutions.
Six ml of blood was taken from each, rabbit at 1 hour, 2 hours, 4 hours, 8 hours, and 24 hours following administration of the solutions, and the serum separated and frozen. Control samples of blood were taken 24 hours earlier. The frozen serum samples were then sent to an independent testing laboratory for determination of the gallium contents by graphite furnace atomic absorption analysis. The testing laboratory received numbered serum samples, and never had any knowledge of the experimental conditions used to produce the samples. Due to uncertainties in the analytical procedures for gallium in serum, the relative proportions of gallium in the serum samples are considered more significant than the actual reported concentrations.

[2] = Solubility in distilled deionized water
Source text: Under some conditions, water may also be incorporated into the structure.

[3] = assay type: physicochemical
Method: The complex was studied at two concentrations in double distilled deionized water: […]. The pH was adjusted by adding either 1N HCl or 1N Na2 CO3. The stability of the complex was determined using ultraviolet spectroscopy over the region 200-450 nm at 25° C. […] An isobesic point occurs over much of the pH range at about 290 nm. In the very dilute solutions (2.5×10^-6 M), the neutral 3:1 complex appears to be stable from about pH 4.5 to 9.5. For the less dilute solutions (1.0×10^-2 M), the determination was more difficult due to the very high absorbance.

rabbits = conditions: rabbit, in vivo; cited from earlier work

Row | Solubility ([2]; water) | SMILES | Mean gallium content of rabbit serum ([1]; 1 hour) | Mean gallium content of rabbit serum ([1]; 2 hours) | Mean gallium content of rabbit serum ([1]; 4 hours) | Mean gallium content of rabbit serum ([1]; 8 hours) | Mean gallium content of rabbit serum ([1]; 24 hours) | pH stability region of the neutral 3:1 complex (in words) [3] | Neurotoxicity (rabbits) | Oral absorption compared with gallium nitrate ([1]; rabbits, equal volume and gallium concentration, stomach acid not counteracted) | Solubility ([2]; distilled deionized water, 23° C.)
1 |  | O=[N+]([O-])[O-].O=[N+]([O-])[O-].O=[N+]([O-])[O-].[Ga+3] [gallium nitrate, reference compound] | 51 ng/mL | 99 ng/mL | 118 ng/mL | 103 ng/mL | 64 ng/mL |  |  |  | 
2 | about 24 millimolar | Cc1occc(=O)c1[O-].Cc1occc(=O)c1[O-].Cc1occc(=O)c1[O-].[Ga+3] [Gallium Maltol] |  |  |  |  |  | very similar to that of the highly dilute solution, possibly slightly wider |  |  | 
3 |  | Cc1occc(=O)c1[O][Al]([O]c1c(C)occc1=O)[O]c1c(C)occc1=O [aluminum maltol complex] |  |  |  |  |  |  | highly neurotoxic |  | 
4 |  | CCc1occc(=O)c1[O][Ga]([O]c1c(CC)occc1=O)[O]c1c(CC)occc1=O [Gallium Ethyl Maltol, 3:1 complex of ethyl maltol and gallium] | 90 ng/mL | 274 ng/mL | 260 ng/mL | 212 ng/mL | 84 ng/mL |  |  | absorbed in significantly higher amounts than the gallium nitrate suspension | about 5 millimolar
